Legend:
[1] = tested on: retina; conditions: monkey, in vivo
From the text: Over the in-life duration of the 39-week monkey toxicity study with RO7034067, the low dose remained free of any test-item related changes in sdOCT and ERG until the last week of assessment (week 35).

[2] = tested on: MADD gene transcript; assay: 2-week dose-range finding toxicity study in cynomolgus monkey: MADD splicing in spleen, duodenum, testis; assay type: in vivo; conditions: cynomolgus monkey 2 weeks, highest dose (0.75, 1.5, 3 and 6 mg/kg/day tested); all three organs
Description: Similar investigations were integrated into the 2-week dose-range finding toxicity study conducted in the cynomolgus monkey with RO7034067. For this purpose, spleen, duodenum, and testis were analyzed from the animals treated with 0.75, 1.5, 3 and 6 mg/kg/day. […] Since secondary pharmacology was detected in spleen, this organ was further analyzed for transcriptome-wide mRNA splicing or expression changes by RNA-sequencing. […] Furthermore, a dose-dependent trend for pathway expression changes was not detected. Therefore, while the few changes in RO7034067-mediated alternative transcript splicing are consistent with in vitro data and those of other SMN2 splicing modifiers, they seem not to fundamentally affect biological pathways or processes under the conditions of this study.

[3] = Aqueous solubility; assay type: physicochemical
[4] = tested on: human RPE cells; assay: Lysosomal function in human RPE cells in vitro; assay type: cell-based
[5] = 39-week monkey toxicity study: retina effects (ERG, sdOCT, histopathology), NOAEL; conditions: cynomolgus monkey; for AUC(0-t): plasma
[6] = tested on: retina; assay: as above; conditions: for ERG B-wave amplitude, left eye / ERG B-wave amplitude, right eye: Animal 0114 (female, 7.5/5 mg/kg/day)

In the case of Cc1cn2nc(-c3cc(=O)n4cc(N5CCNC6(CC6)C5)ccc4n3)cc(C)c2n1 [RO7034067, 7-(4,7-diazaspiro[2.5]octan-7-yl)-2-(2,8-dimethylimidazo[1,2-b]pyridazin-6-yl)pyrido[1,2-a]pyrimidin-4-one], the “individual AUC0-24h exposures without retina changes” value [1] is reported as “up to 15,100 ng·h/mL”, the “mRNA isoform specific qPCR of MADD gene transcript” value [2] is reported as “secondary pharmacological response” and the aqueous solubility [3] is reported as “high aqueous solubility”. For the same compound, the “effect on human RPE cells” value [4] was “Impairment of lysosomal function/autophagosomal accumulation”, the NOAEL at 39 weeks ([5]; both, in vivo, po) was 1.5 mg/kg/day and the AUC(0-t) ([5]; oral) was 4260 ng·h/mL. For the same compound, the AUC(0-t) ([5]; female, po, 3 mg/kg/day) was 4850 ng·h/mL, the AUC(0-t) ([5]; female, po, 5 mg/kg/day) was 6470 ng·h/mL and the AUC(0-t) ([5]; male, po, 3 mg/kg/day) was 4880 ng·h/mL. The AUC(0-t) ([5]; male, po, 5 mg/kg/day) was 5880 ng·h/mL, the “animals noted with ERG deficits” value ([6]; 1.5 mg/kg/day) was “No animals” and the “retinal appearance by sdOCT” value ([6]; 1.5 mg/kg/day) was “retained a normal retinal appearance”. For the same compound, the “AUC0-24h exposure free of retina effects (NOEL/NOAEL of the retina finding), females” value ([6]; 1.5 mg/kg/day, 39 weeks, females) was 2060 ng·h/mL, the “AUC0-24h exposure free of retina effects (NOEL/NOAEL of the retina finding), males” value ([6]; 1.5 mg/kg/day, 39 weeks, males) was 1870 ng·h/mL and the “animals with adverse histopathologic degeneration in mid to peripheral retina” value ([6]; 3 mg/kg/day) was “one female”. For the same compound, the “animals with adverse histopathologic degeneration in mid to peripheral retina” value ([6]; 7.5/5 mg/kg/day) was “two animals/sex”, the “ERG finding in several animals” value ([6]; 7.5/5 mg/kg/day, Week 20 of the dosing phase) was “markedly depressed scotopic and photopic ERGs” and the “primary finding of 39-week administration” value ([6]; 7.5/5 mg/kg/day, correlated with nonadverse epidermal hyperplasia) was “clinical signs in the skin”. The “reversibility of retinal degeneration (histopathology)” value ([6]; 22-week recovery period) was “not reversible during the recovery period”, the “recovery of MMD and depressed ERG” value ([6]; 22-week recovery phase) was “almost fully recovered” and the “ERG B-wave amplitude, left eye” value ([6]; recovery Week 22) was 52.7 mcV. The “ERG B-wave amplitude, right eye” value ([6]; recovery Week 22) was 43.4 mcV, the “ERG B-wave amplitude, left eye” value ([6]; recovery week 8) was 33.5 mcV and the “ERG B-wave amplitude, right eye” value ([6]; recovery week 8) was 34.1 mcV. The “lowest AUC0-24h exposure at the mid-dose with retina findings” value (shortened to “lowest AUC0-24h exposure at the mid-dose”) ([6]; animal No. 11) was 4540 ng·h/mL, the “lowest AUC0-24h exposure at the mid-dose” value ([6]; animal No. 109) was 4560 ng·h/mL and the “lowest AUC0-24h exposure at the mid-dose” value ([6]; animal No. 111) was 4560 ng·h/mL. The “animals with rod ERGs below the criteria” value ([6]; females, 1 mg/kg/day, Week 34) was “Two”, the “animals with depressed rod responses (ERG grading)” value (“animals … (ERG grading)” below) ([6]; females, 3 mg/kg/day, Week 22) was “all three” and the “animals … (ERG grading)” value ([6]; females, 3 mg/kg/day, Week 27) was “none”. The “animals … (ERG grading)” value ([6]; females, 3 mg/kg/day, Week 35) was 1 of 3, the “animals … (ERG grading)” value ([6]; females, 7.5/5 mg/kg/day, Week 20) was 4 of 5 and the “animals … (ERG grading)” value ([6]; females, 7.5/5 mg/kg/day, Week 26) was 2 of 5. The “animals … (ERG grading)” value ([6]; females, 7.5/5 mg/kg/day, Week 34) was 4 of 5, the “individual AUC0-24h exposure free of effects on the retina” value ([6]; individual animals, end of study) was “up to 2300 ng·h/mL” and the ERG finding ([6]; intermediate and low dose groups (3.0 and 1.5 mg/kg/day), dosing phase) was “generally remained within expected limits”. For the same compound, the “animals with rod response below the expected range” value ([6]; males, 1 mg/kg/day) was “No males”, the “animals … (ERG grading)” value ([6]; males, 3 mg/kg/day, Week 22) was 1 of 3 and the “animals … (ERG grading)” value ([6]; males, 3 mg/kg/day, Week 26 or 35) was “none”. For the same compound, the sdOCT finding ([6]; males, 3 mg/kg/day, Weeks 22, 27 and 35) was “minimal/mild retinal disorganization in the periphery”, the “animals … (ERG grading)” value ([6]; males, 7.5/5 mg/kg/day, Week 20) was “Four of five” and the “animals … (ERG grading)” value ([6]; males, 7.5/5 mg/kg/day, Week 26) was 2 of 5. For the same compound, the “animals … (ERG grading)” value ([6]; males, 7.5/5 mg/kg/day, Week 34) was 5 of 5.
